Tests used:
γ-globin mRNA = γ-globin mRNA by RT-PCR in erythroid colonies cultured from cord blood; type: cell-based, human; conditions: for Concentration required: increase in fetal globin mRNA, erythroid colonies from cord blood; for No. of Positive responses: positive cultures/cultures tested; for fetal globin induction: 3 cultures
Experimental: γ-globin mRNA was analyzed in control and treated erythroid colonies cultured from cord blood, by RT-PCR.

[1] = tested on: cells expressing fetal globin (F-cells); test: Experiment 1: proportion of F-cells in hematopoietic colonies by FACScan; type: cell-based, human; conditions: same low concentrations as for fetal globin mRNA induction
Experimental: (§1) Erythroid burst-forming units (BFU-E) (erythroid progenitors) and colony-forming units granulocyte-macrophage (CFU-GM) (myeloid colonies) were cultured in semi-solid or in two-phase suspension media, with or without hematopoietic growth factors at high levels (e.g., erythropoietin at 3 U/ml) or reduced levels (BFU-E cell proliferation was evaluated by enumeration in colonies developing in the presence of reduced amounts of erythropoietin (0.5 U/ml) rather than 3 U (or 3000 mU)/ml, which is standard for these experimental systems), from cord blood or the peripheral blood of several types of humans. Experiments were carried out on samples derived from 1) β-thalassemia patients who expressed variable levels of fetal globin at baseline (and in untreated control cultures) and represent a variety of potential individual responses, 2) from normal umbilical cord blood samples, which express 40-50% fetal globin at baseline (and in untreated control cultures), 3) from CD34+ cells isolated from normal adult peripheral blood, which expressed low levels of fetal globin in untreated control cultures and at baseline; and 4) from peripheral blood of patients with sickle cell disease who were receiving treatment with hydroxyurea. These biological samples provide a range of potential difficulty in stimulating fetal globin expression in human patients.
Hematopoietic colonies were enumerated with or without (+/−) the test compounds, and compared to colonies which developed in the presence of hematopoietic growth factors alone from the same subject (untreated control colonies), and proportions of cells expressing fetal globin (F-cells) were analyzed by FACScan analysis.

[2] = tested on: Erythroid colonies (BFU-E); test: Experiment 2: erythroid colonies (BFU-E) cultured from patients with beta thalassemia; type: cell-based, human; conditions: optimal panel of growth factors
Experimental: as §1
Erythroid colonies were cultured from patients with beta thalassemia, either without any test compounds (Control), only an optimal panel of hematopoietic growth factors, or with one of the test compounds M, P, T, 2-methyl-1-benzofuran-4-carboxylic acid, V, W, X, Y, AK, AC, or AI. […] Colony numbers were increased above the control cultures (% BFU-E/Control) by anywhere from 25% to 230%. Each of the listed test compounds was tested in at least 5 different patients' blood and the differences were statistically significant.

BFU-E = BFU-E cultured from cord blood; type: cell-based, human
Experimental: as §1
In a related study, BFU-E cultured from cord blood, was tested with or without compound M, P, R, T, W, Y, Z, AI, F, or 3-(5-chlorothien-3-yl)acrylic acid.

γ globin promoter = test: β/γ-globin promoter driven reporter gene assay; type: cell-based; conditions: Table 2
fetal globin mRNA = test: Fetal globin induction in phlebotomized anemic baboons; type: in vivo, baboon; conditions: Baboon 5002, 50 mg/kg
Experimental: Juvenile baboons were catheterized with venous and arterial catheters, and were phlebotomized a set amount of blood daily to maintain anemia with a hemoglobin level of 7.0-7.5 g/dl, from a baseline normal hemoglobin level of (12-13 g/dl). Normal saline was infused to replace the amount of blood withdrawn. This degree of phlebotomy exchanges the blood volume every 10-20 days.
Fetal globin mRNA was analyzed at baseline anemia before and following administration of test compounds. Globin chain protein synthesis confirmed the mRNA findings.
Following establishment of the stable level of anemia, a test compound was administered once/day, either intravenously or orally, and blood was withdrawn through the arterial catheter for analysis of globin mRNA or for analysis of the test compound in the plasma by HPLC-MS. Pharmacokinetic profiles were established from the plasma levels and oral bioavailability (comparing area under the curve between IV and oral plasma levels) was determined for the test compounds.
In anemic Baboon 5002, baseline fetal globin mRNA, assayed by RNAse protection, was 26% of non-alpha globin. With treatment with compound Y at 5 mg/kg/dose, fetal globin mRNA increased to 48% of non-alpha globin, an 85% increase over the baseline level. Treatment with compound AK at 50 mg/kg induced a 51% fetal globin mRNA increase, a 96% increase over the baseline level. […] The human equivalent dose is 20% of these doses, or 1 mg/kg, 10 mg/kg, or 8 mg/kg respectively. Thus, these 3 compounds are highly suitable for pharmaceutical compositions at doses that human patients can readily tolerate.

γ-globin gene = test: Related study: relative in vitro γ-globin gene induction; type: cell-based
Experimental: (§2) In a related study, the relative luciferase reporter gene induction, γ-globin gene induction, and F cell production was tested for several of the candidate compounds. The relative in vitro γ-globin gene reporter stimulation for the tested compounds was as follows: compound P>M>W=R=Y. The relative in vitro γ-globin gene induction for the tested compounds was as follows: P>R=M>Y>W>. The relative in vitro F-cell production was as follows: W>Y>R>M>P. The relative potency for F-cell production was as follows: R>M>Y>P>W.

F-cell = test: Related study: in vitro F cell production; type: cell-based
Experimental: as §2

γ-globin gene reporter = test: Related study: relative luciferase reporter gene induction; type: cell-based
Experimental: as §2

Erythroid colonies = test: Example 7: erythroid colonies cultured with low Erythropoietin (0.5 U/ml) and compound Y enantiomers; type: cell-based, human
Experimental: The proliferative activity of compound Y—S enantiomer was tested in vitro in erythroid colonies cultured from peripheral blood of 3 sources of individuals: sickle cell anemia patients who were taking Hydroxyurea and have suppression of their endogenous erythropoiesis, a normal adult subject, and two cord blood samples. The erythroid cultures were established with low concentrations of Erythropoietin (0.5 U/ml) alone and with one or the other enantiomer of compound Y or the racemic mixture, or with high concentrations of EPO (3 Units/ml, =3000 mU/ml, 100-fold the normal physiologic concentration).

Molecule: Cc1cc2c(C(=O)O)cccc2o1 [2-methyl-1-benzofuran-4-carboxylic acid]
- Concentration required (γ-globin mRNA): 5 µM
- No. of Positive responses (γ-globin mRNA): 6/6
- proportion of F-cells above the percentage in untreated controls [1]: significant increases
- number of erythroid colonies compared to matched control cultures [2]: increased the number of colonies

Molecule: O=C(O)C=Cc1csc(Cl)c1 [3-(5-chlorothien-3-yl)acrylic acid]
- Concentration required (γ-globin mRNA): 30 µM
- proportion of F-cells above the percentage in untreated controls [1]: significant increases
- numbers of BFU-E colonies compared to controls (BFU-E): increased numbers of colonies

Molecule: O=C(O)Cn1ccc(=O)cc1 [AA]
- % γ globin promoter induction (above untreated control) (γ globin promoter): ** (‘**’ indicates a 100%-200% increase)

Molecule: O=C(O)C1CCc2snnc2C1 (stereo not shown) [AB]
- % γ globin promoter induction (above untreated control) (γ globin promoter): ** (‘**’ indicates a 100%-200% increase)

Molecule: O=C(O)Cn1cc(Cl)c([N+](=O)[O-])n1 [AC]
- % γ globin promoter induction (above untreated control) (γ globin promoter): ** (‘**’ indicates a 100%-200% increase)
- number of erythroid colonies compared to matched control cultures [2]: increased the number of colonies

Molecule: Cn1cnnc1SCC(=O)O [AD]
- % γ globin promoter induction (above untreated control) (γ globin promoter): ** (‘**’ indicates a 100%-200% increase)

Molecule: O=C(O)CSc1nnc(S)s1 [AE]
- % γ globin promoter induction (above untreated control) (γ globin promoter): ** (‘**’ indicates a 100%-200% increase)

Molecule: O=C(CC1(C(=O)O)CCCCC1)c1cccs1 [AF]
- % γ globin promoter induction (above untreated control) (γ globin promoter): * (‘*’ indicates a 80-100% increase)

Molecule: O=C1CC(C(=O)O)Cc2ccsc21 (stereo not shown) [AG]
- % γ globin promoter induction (above untreated control) (γ globin promoter): ** (‘**’ indicates a 100%-200% increase)

Molecule: Cc1cc(SCC(=O)O)cs1 [AH]
- % γ globin promoter induction (above untreated control) (γ globin promoter): ** (‘**’ indicates a 100%-200% increase)

Molecule: O=C(O)CCC1(c2ccc(Cl)s2)CCCCC1 [AJ]
- % γ globin promoter induction (above untreated control) (γ globin promoter): ** (‘**’ indicates a 100%-200% increase)

Molecule: O=[N+]([O-])c1cc(S(=O)(=O)O)ccc1F [AK]
- increase over the baseline level of fetal globin mRNA (fetal globin mRNA): 96%
- fetal globin mRNA (% of non-alpha globin) (fetal globin mRNA; baseline 26%): 51%
- % γ globin promoter induction (above untreated control) (γ globin promoter): ** (‘**’ indicates a 100%-200% increase)
- number of erythroid colonies compared to matched control cultures [2]: increased the number of colonies

Molecule: O=C(O)/C=C/c1ccnc2ccccc12 [F]
- proportion of F-cells above the percentage in untreated controls [1]: significant increases
- % γ globin promoter induction (above untreated control) (γ globin promoter): *** (‘***’ indicates an over 200% increase of γ globin promoter induction over untreated controls)
- numbers of BFU-E colonies compared to controls (BFU-E): increased numbers of colonies

Molecule: O=C(O)CN1C(=O)S/C(=C/c2ccccc2O)C1=O [K]
- % γ globin promoter induction (above untreated control) (γ globin promoter): * (‘*’ indicates a 80-100% increase)

Molecule: O=C(O)CNc1ccc(SC(F)(F)F)cc1 [N]
- proportion of F-cells above the percentage in untreated controls [1]: significant increases
- % γ globin promoter induction (above untreated control) (γ globin promoter): *** (‘***’ indicates an over 200% increase of γ globin promoter induction over untreated controls)

Molecule: COc1cc(OC)cc(Oc2ccccc2C(=O)O)c1 [O]
- % γ globin promoter induction (above untreated control) (γ globin promoter): * (‘*’ indicates a 80-100% increase)

Molecule: COc1cc(OC)cc(SC(C(=O)O)C(C)C)c1 (stereo not shown) [Q]
- % γ globin promoter induction (above untreated control) (γ globin promoter): ** (‘**’ indicates a 100%-200% increase)

Molecule: COc1ccc(C(N)CC(=O)O)cc1OC (stereo not shown) [R]
- relative in vitro γ-globin gene induction (rank order) (γ-globin gene): P>R=M>Y>W
- proportion of F-cells above the percentage in untreated controls [1]: significant increases
- relative in vitro F-cell production (rank order) (F-cell): W>Y>R>M>P
- relative potency for F-cell production (rank order) (F-cell): R>M>Y>P>W
- % γ globin promoter induction (above untreated control) (γ globin promoter): *** (‘***’ indicates an over 200% increase of γ globin promoter induction over untreated controls)
- relative in vitro γ-globin gene reporter stimulation (rank order) (γ-globin gene reporter): P>M>W=R=Y
- numbers of BFU-E colonies compared to controls (BFU-E): increased numbers of colonies

Molecule: O=C(O)Cc1[nH]c(=O)cc(O)c1C(=O)O [S]
- % γ globin promoter induction (above untreated control) (γ globin promoter): ** (‘**’ indicates a 100%-200% increase)

Molecule: O=C1CSc2ccc(C(=O)O)cc2N1 [T]
- proportion of F-cells above the percentage in untreated controls [1]: significant increases
- % γ globin promoter induction (above untreated control) (γ globin promoter): ** (‘**’ indicates a 100%-200% increase)
- number of erythroid colonies compared to matched control cultures [2]: increased the number of colonies
- numbers of BFU-E colonies compared to controls (BFU-E): increased numbers of colonies

Molecule: COc1cccc(SCC(=O)O)c1 [V]
- Concentration required (γ-globin mRNA): 5 µM
- No. of Positive responses (γ-globin mRNA): 6/6
- proportion of F-cells above the percentage in untreated controls [1]: significant increases
- % γ globin promoter induction (above untreated control) (γ globin promoter): ** (‘**’ indicates a 100%-200% increase)
- number of erythroid colonies compared to matched control cultures [2]: increased the number of colonies

Molecule: COc1cc(OC)nc(S[C@@H](C(=O)O)C(C)C)n1 [Y + R]
- fetal globin induction (γ-globin mRNA): demonstrated fetal globin inducing action
- Concentration required (γ-globin mRNA): 5 µM
- No. of Positive responses (γ-globin mRNA): 2/3
- erythroid cell proliferation (Erythroid colonies): does not stimulate cell proliferation

Molecule: COc1cc(OC)nc(S[C@H](C(=O)O)C(C)C)n1 [Y − S]
- fetal globin induction (γ-globin mRNA): did not induce fetal globin in 2 of (the same) 3 cultures
- Concentration required (γ-globin mRNA): 5 µM
- No. of Positive responses (γ-globin mRNA): 1/3
- erythroid cell proliferation (Erythroid colonies): stimulates erythroid cell proliferation significantly
- range of more erythroid colonies than in the racemic mixture (Erythroid colonies; low EPO 0.5 U/ml): 38-50%
- mean more erythroid colonies than in the racemic mixture (Erythroid colonies; low EPO 0.5 U/ml, same concentration): 45%

Molecule: O=C(O)c1cccc(Cn2cc(Cl)cn2)c1 [Z]
- proportion of F-cells above the percentage in untreated controls [1]: significant increases
- % γ globin promoter induction (above untreated control) (γ globin promoter): ** (‘**’ indicates a 100%-200% increase)
- numbers of BFU-E colonies compared to controls (BFU-E): increased numbers of colonies

Molecule: EPO: Erythropoietin, high concentration 3 Units/ml in erythroid cultures
- mean more colonies than cultures with racemic mix or R enantiomer in low EPO (Erythroid colonies; high EPO 3 Units/ml): 35%
- range of more colonies than cultures with racemic mix or R enantiomer in low EPO (Erythroid colonies; high EPO 3 Units/ml): 25-45%
